Tests used:
[1] = tested on: Corn Earworm (Helicoverpa zea); test: Insecticidal diet-surface test for corn earworm; format: in vivo; conditions: second-instar corn earworm, 50 ug/cm2 on diet surface, 5 days after treatment, dead insects of 8
Procedure: (§1) The compounds identified in Table 1 were prepared using the procedures illustrated in the foregoing examples, and the compounds were tested against beet armyworm and corn earworm as follows:
(§2) Insecticidal Test for Corn Earworm (Helicoverpa zea) and Beet Armyworm (Spodoptera exigua).
(§3) To prepare test solution, the test compound was formulated at 2000 ppm solution as 4 mg/2 mL of 9 acetone:1 tap water. 50 μL of the 2000 ppm (equivalent to 50 ug/cm^2 dose on diet surface area) test solution was pipetted upon the surface of 1 mL of lepidopteran diet (Southland Multi-Species Lepidopteran Diet) contained in each of eight wells per insect species (one well=1 replication). A second-instar corn earworm and beet armyworm was placed upon the treated diet in each well once the solvent had air-dried. Trays containing the treated diet and larvae were covered and then held in a growth chamber at 25° C., 50-55% RH, and 16 hr light:8 hr dark for 5 days. Observation were conducted 5 days after treatment and infestation. The number of dead insects of 8 per species per treatment was then determined and the results are given in Table 1 as percent control at a dose of […].
(§4) Keys to the table: Mass spectral data were obtained using liquid chromatography mass spectroscopy (LC-MS). The masses are detected using electrospray ionization (ESI) and reported as Mol Ion (M+H, M−H); AVG LAPHEG 50 refers to activity against beet army worm (Spodoptera exigua) as defined above; AVG HELIZE 50 refers to activity against corn ear worm (Helicoverpa zea) as described above.

[2] = tested on: Beet Armyworm (Spodoptera exigua); test: Insecticidal diet-surface test for beet armyworm; format: in vivo; conditions: second-instar beet armyworm, 50 ug/cm2 on diet surface, 5 days after treatment, dead insects of 8
Procedure: as §1, §2, §3, §4

Fc1ccc(Nc2nc(Cl)nc(N/N=C/c3ccc(OC(F)(F)F)nc3)c2Cl)cc1C(F)(F)F [Compound 82]
HELIZE 50 (ug/cm2), percent control [1]: 100%
LAPHEG 50 (ug/cm2), percent control [2]: 100%

Fc1ccc(/C=N/Nc2nc(Cl)cc(Nc3cccc(Br)c3)n2)cc1C(F)(F)F [Compound 52]
HELIZE 50 (ug/cm2), percent control [1]: 75%
LAPHEG 50 (ug/cm2), percent control [2]: 38%

Fc1ccc(Nc2cc(N/N=C/c3ccc(OC(F)(F)F)cc3)nc(NCc3ccc(Cl)nc3)n2)cc1C(F)(F)F [Compound 3, N-[2-(6-Chloropyridin-3-ylmethyl)]-N-[4-(4-fluoro-3-trifluoromethylphenyl)]-6-{N′-[1-(4-trifluoromethoxyphenyl)-methylidene]-hydrazino}pyrimidine-2,4-diamine]
HELIZE 50 (ug/cm2), percent control [1]: 100%
LAPHEG 50 (ug/cm2), percent control [2]: 100%

Clc1ccc(/C=N/Nc2nc(Cl)cc(Nc3cccc(Br)c3)n2)cc1 [Compound 36]
HELIZE 50 (ug/cm2), percent control [1]: 38%
LAPHEG 50 (ug/cm2), percent control [2]: 0%

COc1ccc(/C=N/Nc2nc(Cl)cc(Nc3ccc(F)c(C(F)(F)F)c3)n2)cc1 [Compound 23]
HELIZE 50 (ug/cm2), percent control [1]: 38%
LAPHEG 50 (ug/cm2), percent control [2]: 50%

CN(/N=C/c1ccc(OC(F)(F)F)cc1)c1nc(Nc2ccc(OC(F)(F)F)cc2)cc(C(F)(F)F)n1 [Compound 61]
HELIZE 50 (ug/cm2), percent control [1]: 88%
LAPHEG 50 (ug/cm2), percent control [2]: 88%

Fc1ccc(Nc2cc(Cl)nc(N/N=C/c3ccc(OCC(F)(F)F)nc3)n2)cc1C(F)(F)F [Compound 70]
HELIZE 50 (ug/cm2), percent control [1]: 100%
LAPHEG 50 (ug/cm2), percent control [2]: 100%

Fc1ccc(Nc2cc(Cl)nc(N/N=C/c3cccc(Cl)c3)n2)cc1C(F)(F)F [Compound 24]
HELIZE 50 (ug/cm2), percent control [1]: 100%
LAPHEG 50 (ug/cm2), percent control [2]: 100%

N#Cc1ccc(/C=N/Nc2nc(Cl)cc(Nc3cccc(Cl)c3)n2)cc1 [Compound 33]
HELIZE 50 (ug/cm2), percent control [1]: 13%
LAPHEG 50 (ug/cm2), percent control [2]: 13%

Clc1ccc(Nc2cc(Cl)nc(N/N=C/c3ccc(N4CCCCC4)cc3)n2)cc1 [Compound 27]
HELIZE 50 (ug/cm2), percent control [1]: 100%
LAPHEG 50 (ug/cm2), percent control [2]: 38%

CN(c1ccc(OC(F)(F)F)cc1)c1cc(C(F)(F)F)nc(N/N=C/c2ccc(OC(F)(F)F)cc2)n1 [Compound 2, Methyl-(4-trifluoromethoxyphenyl)-(2-{N′-[1-(4-trifluoromethoxy-phenyl)-methylidene]-hydrazino}-6-trifluoromethylpyrimidin-4-yl)amine]
HELIZE 50 (ug/cm2), percent control [1]: 50%
LAPHEG 50 (ug/cm2), percent control [2]: 0%

FC(F)(F)Oc1ccc(/C=N/Nc2nc(Cl)cc(Nc3ccc(Cl)cc3)n2)cc1 [Compound 26]
HELIZE 50 (ug/cm2), percent control [1]: 100%
LAPHEG 50 (ug/cm2), percent control [2]: 100%

Fc1cnc(N/N=C/c2cccc(OC(F)(F)F)c2)nc1Nc1ccc(OC(F)(F)F)cc1 [Compound 15]
HELIZE 50 (ug/cm2), percent control [1]: 75%
LAPHEG 50 (ug/cm2), percent control [2]: 0%

Fc1cc(Nc2ccc(F)c(C(F)(F)F)c2)nc(NN=Cc2ccc(OC(F)(F)C(F)F)cc2)n1 [Compound 18]
HELIZE 50 (ug/cm2), percent control [1]: 100%
LAPHEG 50 (ug/cm2), percent control [2]: 100%

CC(C)(C)C(=O)OC(c1cccc(Nc2cc(Cl)nc(N/N=C/c3ccc(OC(F)(F)F)cc3)n2)c1)C(F)(F)F (stereo not drawn) [Compound 53]
HELIZE 50 (ug/cm2), percent control [1]: 0%
LAPHEG 50 (ug/cm2), percent control [2]: 38%

Fc1ccc(Nc2cc(NN=Cc3ccc(OC(F)(F)F)cc3)ncn2)cc1C(F)(F)F [Compound 85]
HELIZE 50 (ug/cm2), percent control [1]: 100%
LAPHEG 50 (ug/cm2), percent control [2]: 100%

OC(c1ccc(Nc2cc(F)nc(NN=Cc3ccc(OC(F)(F)C(F)F)cc3)n2)cc1)(C(F)(F)F)C(F)(F)F [Compound 22]
HELIZE 50 (ug/cm2), percent control [1]: 100%
LAPHEG 50 (ug/cm2), percent control [2]: 100%

FC(F)(F)Oc1ccc(/C=N/Nc2ccnc(Nc3ccc(OC(F)(F)F)cc3)n2)cc1 [Compound 73]
HELIZE 50 (ug/cm2), percent control [1]: 100%
LAPHEG 50 (ug/cm2), percent control [2]: 100%

Fc1ccc(Nc2cc(N3CCOCC3)nc(N/N=C/c3ccc(OC(F)(F)F)cc3)n2)cc1C(F)(F)F [Compound 62]
HELIZE 50 (ug/cm2), percent control [1]: 100%
LAPHEG 50 (ug/cm2), percent control [2]: 100%

Clc1cccc(/C=N/Nc2nc(Cl)cc(Nc3cccc(Cl)c3)n2)c1 [Compound 38]
HELIZE 50 (ug/cm2), percent control [1]: 0%
LAPHEG 50 (ug/cm2), percent control [2]: 25%

FC(F)(F)c1cccc(Nc2cc(C(F)(F)F)nc(N/N=C/c3cccc(Br)c3)n2)c1 [Compound 55]
HELIZE 50 (ug/cm2), percent control [1]: 88%
LAPHEG 50 (ug/cm2), percent control [2]: 75%

Clc1cccc(Nc2cc(Cl)nc(N/N=C/c3ccc(N4CCCCC4)cc3)n2)c1 [Compound 43]
HELIZE 50 (ug/cm2), percent control [1]: 63%
LAPHEG 50 (ug/cm2), percent control [2]: 0%

Fc1cnc(N/N=C/c2ccc(Br)cc2)nc1Nc1ccc(OC(F)(F)F)cc1 [Compound 12]
HELIZE 50 (ug/cm2), percent control [1]: 100%
LAPHEG 50 (ug/cm2), percent control [2]: 0%

FC(F)(F)c1ccc(/C=N/Nc2nc(Cl)cc(Nc3cccc(Br)c3)n2)cc1 [Compound 40]
HELIZE 50 (ug/cm2), percent control [1]: 100%
LAPHEG 50 (ug/cm2), percent control [2]: 100%

Fc1ccc(Nc2cc(Cl)nc(N/N=C/c3ccc(OC(F)(F)C(F)F)cc3)n2)cc1C(F)(F)F [Compound 59]
HELIZE 50 (ug/cm2), percent control [1]: 100%
LAPHEG 50 (ug/cm2), percent control [2]: 100%

COCCNc1cc(Nc2ccc(F)c(C(F)(F)F)c2)nc(N/N=C/c2ccc(OC(F)(F)F)cc2)n1 [Compound 64]
HELIZE 50 (ug/cm2), percent control [1]: 100%
LAPHEG 50 (ug/cm2), percent control [2]: 100%

Fc1ccc(Nc2cc(C(F)(F)F)nc(N/N=C/c3ccc(C(F)(F)F)nc3)n2)cc1C(F)(F)F [Compound 72]
HELIZE 50 (ug/cm2), percent control [1]: 100%
LAPHEG 50 (ug/cm2), percent control [2]: 100%

Fc1ccc(/C=N/Nc2nc(Cl)cc(Nc3ccc(OC(F)(F)C(F)F)cc3)n2)cc1C(F)(F)F [Compound 8]
HELIZE 50 (ug/cm2), percent control [1]: 100%
LAPHEG 50 (ug/cm2), percent control [2]: 100%

FC(F)C(F)(F)Oc1ccc(Nc2cc(Cl)nc(N/N=C/c3ccc4c(c3)OC(F)(F)O4)n2)cc1 [Compound 9]
HELIZE 50 (ug/cm2), percent control [1]: 100%
LAPHEG 50 (ug/cm2), percent control [2]: 100%

Fc1ccc(Nc2nc(Cl)cc(N/N=C/c3ccc(OC(F)(F)F)cc3)n2)cc1C(F)(F)F [Compound 75]
HELIZE 50 (ug/cm2), percent control [1]: 100%
LAPHEG 50 (ug/cm2), percent control [2]: 100%

Fc1cc(Nc2ccc(F)c(C(F)(F)F)c2)nc(NN=Cc2ccc(OC(F)(F)F)cc2)n1 [Compound 17]
HELIZE 50 (ug/cm2), percent control [1]: 100%
LAPHEG 50 (ug/cm2), percent control [2]: 100%

Clc1ccc(/C=N/Nc2nc(Cl)cc(Nc3ccc(Cl)cc3)n2)cc1 [Compound 25]
HELIZE 50 (ug/cm2), percent control [1]: 100%
LAPHEG 50 (ug/cm2), percent control [2]: 75%

Fc1ccc(Nc2ncc(F)c(NN=Cc3ccc(OC(F)(F)F)cc3)n2)cc1C(F)(F)F [Compound 78]
HELIZE 50 (ug/cm2), percent control [1]: 100%
LAPHEG 50 (ug/cm2), percent control [2]: 100%

Fc1cnc(N/N=C/c2ccc(OC(F)(F)C(F)F)cc2)nc1Nc1ccc(OC(F)(F)F)cc1 [Compound 14]
HELIZE 50 (ug/cm2), percent control [1]: 88%
LAPHEG 50 (ug/cm2), percent control [2]: 0%

Fc1ccc(Nc2cc(Cl)nc(N/N=C/c3ccc(OC(F)(F)F)cc3)n2)cc1C(F)(F)F [Compound 1, (6-Chloro-2-{N′-[1-(4-trifluoromethoxyphenyl)-methylidene]-hydrazino}-pyrimidin-4-yl)-(4-fluoro-3-trifluoromethylphenyl)amine]
HELIZE 50 (ug/cm2), percent control [1]: 100%
LAPHEG 50 (ug/cm2), percent control [2]: 100%

Fc1cc(Nc2ccc(OC(F)(F)C(F)F)cc2)nc(NN=Cc2ccc(OC(F)(F)F)cc2)n1 [Compound 19]
HELIZE 50 (ug/cm2), percent control [1]: 13%
LAPHEG 50 (ug/cm2), percent control [2]: 50%

FC(F)C(F)(F)Oc1cccc(Nc2cc(Cl)nc(N/N=C/c3ccc(OC(F)(F)F)cc3)n2)c1 [Compound 47]
HELIZE 50 (ug/cm2), percent control [1]: 100%
LAPHEG 50 (ug/cm2), percent control [2]: 100%

FC(F)(F)c1ccc(/C=N/Nc2nc(Cl)cc(Nc3ccc(Cl)cc3)n2)cc1 [Compound 46]
HELIZE 50 (ug/cm2), percent control [1]: 100%
LAPHEG 50 (ug/cm2), percent control [2]: 100%

Fc1ccc(Nc2cc(C(F)(F)F)nc(N/N=C/c3cccc(Br)c3)n2)cc1C(F)(F)F [Compound 57]
HELIZE 50 (ug/cm2), percent control [1]: 100%
LAPHEG 50 (ug/cm2), percent control [2]: 100%

— patent US8598182B2, “Insecticidal pyrimidinyl aryl hyrdrazones” (Dow AgroSciences, LLC., priority 2007, dated 2013)
